# In patent publication US4590199A, “Antihistaminic 2-(amino ethylamino) pyridines” (priority 1983, dated 1986):
# Key:
# [1] = antihistamines now in use; causes dryness of mouth, blurred vision and tachycardia; cited from earlier work
# [2] = human, in vivo; cited from earlier work
# [3] = target: T1, histamine response of longitudinal muscle isolated from the intact ileum of guinea-pigs (Cavia porcellus, UniProt P31389); assay: In vitro antihistaminic activity (histamine concentration-response curves, Schild plot); type: cell-based, guinea-pig (Hartley, male); conditions: for Kb: guinea-pig ileum longitudinal muscle, one hour incubation with test compound, Schild plot, read-out: pA2 (converted); for antihistamine activity (in words): of the compounds of formula (I)
# T1 construct: The longitudinal muscle was isolated from the intact ileum of guinea-pigs; from tissue; host or cells: longitudinal muscle of guinea-pig ileum (Hartley, male)
# T1 sequence (P31389 whole entry): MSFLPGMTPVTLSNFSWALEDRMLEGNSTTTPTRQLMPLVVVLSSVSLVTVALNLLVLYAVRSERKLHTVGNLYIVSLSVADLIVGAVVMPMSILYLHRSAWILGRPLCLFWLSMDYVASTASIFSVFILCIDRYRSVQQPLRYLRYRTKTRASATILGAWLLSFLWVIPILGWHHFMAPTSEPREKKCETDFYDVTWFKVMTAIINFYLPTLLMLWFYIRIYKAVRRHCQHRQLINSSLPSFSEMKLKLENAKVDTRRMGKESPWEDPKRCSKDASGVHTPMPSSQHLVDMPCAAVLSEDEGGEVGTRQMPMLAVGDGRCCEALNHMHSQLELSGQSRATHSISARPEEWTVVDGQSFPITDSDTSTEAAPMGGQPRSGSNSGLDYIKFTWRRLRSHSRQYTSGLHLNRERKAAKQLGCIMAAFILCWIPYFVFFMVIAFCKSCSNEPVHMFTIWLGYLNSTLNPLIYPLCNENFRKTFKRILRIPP
# Protocol: In vitro antihistaminic activity: The longitudinal muscle was isolated from the intact ileum of guinea-pigs (Hartley, male 250-400 g) and placed in an organ bath under 300 mg tension. After one hour of equilibration, cumulative concentration-response curves (Van Rossum, J. M., Arch. Int. Pharmacodyn. Ther. 143, 299-330, 1963) to histamine were obtained. Following washing, the tissues were incubated for one hour with the test compound and then a second histamine concentration-response curve was run. Shifts to the right of the agonist concentration-response curve produced by the antagonists were used to construct Schild plots (Arunlakshana, O. and Schild, H. O., Br. J. Pharmacol: 14, 48-58, 1959). Regression of Log (dr-1) on Log [B], where dr is an equiactive response in the presence and absence of antagonist and [B] is the molar concentration of antagonist, allowed an estimate of pA2, i.e. the negative log of the concentration of antagonist which shifts the control histamine concentration-response curve 2X to the right.
Kb [3],antihistamine activity (in words) [3],Structure (SMILES),anticholinergic activity [1],sedation and drowsiness [2]
,,"COc1ccc(CN(CCN(C)C)c2ccccn2)cc1 [Pyrilamine, N,N-dimethyl-N'-(4-methoxyphenylmethyl)-N'-2-pyridyl-1,2-ethanediamine]",varying degrees of anticholinergic activity,produces sedation and drowsiness in varying degrees in most patients
,,CC(CN1c2ccccc2Sc2ccccc21)N(C)C (centres unmarked) [promethazine],varying degrees of anticholinergic activity,
,,Cc1ccc(/C(=C\CN2CCCC2)c2ccccn2)cc1 [triprolidine],varying degrees of anticholinergic activity,
1260 nM,particularly active,"COc1ccc(CN(CCN(C)C)c2ccc(C(=O)O)cn2)cc1 [Compound B, 6-(N-(2-dimethylaminoethyl)-4-methoxybenzylamino) nicotinic acid]",,
251 nM,particularly active,"COc1ccc(CN(CCN(C)C)c2cccc(/C=C/C(=O)O)n2)cc1 [Compound A, (E)-3-(6-(N-(2-dimethylaminoethyl)-4-methoxybenzylamino)-2-pyridyl)acrylicacid]",,
